The values below come from patent publication US20200383985A1, “Inhibitors of Protease Activated Receptor-2” (Endosome Therapeutics, Inc., priority 2017, published 2020).

Where two headings read alike, the source gives them in different places. Bounds are passed on as bounds.

Holding throughout (assay type): cell-based
The subject of test [1] is cytosolic and nuclear ERK. The experiment in a line: FRET assays of cytosolic and nuclear ERK in HEK293 cells. The note with it: AG1478 1 μM, UBO-QIC 100 nM, G66983 1 μM. Here is the method:
Trypsin-induced ERK signaling mediated by endosomal PAR2 signaling was investigated in HEK293 cells expressing Flag-PAR2-HA11 and FRET biosensors for cytosolic and nuclear ERK (CytoEKAR, NucEKAR), plasma membrane and cytosolic PKC (pmCKAR, CytoCKAR), and plasma membrane and cytosolic cAMP (pmEpac, CytoEpac). […] I-343 (10 μM) but not SCH530348 (100 nM) inhibited trypsin activation of cytosolic and nuclear ERK (FIG. 5G). PS2 and DynK44E inhibited trypsin-stimulated activation of cytosolic and nuclear ERK when compared to PS2 inact and DynWT controls (FIG. 5H, 5I, 17G-J). AG1478 (1 μM), an inhibitor of EGF receptor tyrosine kinase (Levitzki, A. & Gazit, A. Science 1995, 267(5205): 1782-1788), UBO-QIC (100 nM), which inhibits Gαq and certain Gβγ signals ([…]), and G66983 (1 μM), which inhibits all isoforms of PKC (Gschwendt, M, et al., FEBS Lett 1996, 392(2): 77-80), suppressed trypsin-stimulated activation of cytosolic ERK (FIGS. 5J and 17K).
HEK293 cells were cultured in DMEM supplemented with 10% (v/v) FBS (5% CO2, 37° C.). When necessary serum restriction was achieved by replacing culture medium with DMEM containing 0.5% FBS overnight. Cells were transiently transfected using polyethylenimine (PEI) (1:6 DNA:PEI).
HEK293 cells were transiently transfected in 10 cm dishes (˜50% confluency) with Flag-PAR2-HA (2.5 μg) and FRET biosensors CytoEKAR or NucEKAR (2.5 μg) (Jensen, D. D. et al., Sci Transl Med. 2017, 9(392), eaal3447; Thomsen, A. R. B., et al., Cell 2016, 166(4): 907-919). In experiments examining the role of dynamin, cells were transfected with FLAG-PAR2-HA (1.25 μg), FRET biosensor (1.25 μg) and either DynWT-HA, DynK44E-HA or pcDNA3.1 (2.5 μg). At 24 h after transfection, cells were seeded on ViewPlate-96 well plates (PerkinElmer). FRET was assessed 72 h post-transfection, following overnight serum restriction. Cells were equilibrated in HBSS-HEPES (30 min, 37° C.). FRET was measured using a PHERAstar FSX Microplate Reader (BMG LabTech). For CFP/YFP emission ratio analysis, cells were sequentially excited using a CFP filter (425/10 nm) with emission measured using YFP (550/50 nm) and CFP (490/20 nm) filters. FRET was measured before and after stimulation with trypsin (10 nM), NE (100 nM), CS (100 nM), phorbol 12,13-dibutyrate, PDBu (positive control, 1 μM), or vehicle. FRET ratios (donor/acceptor intensity for EKAR, or acceptor/donor intensity for CKAR and Epac) were calculated and corrected to baseline and vehicle treatments to determine ligand-induced FRET (ΔFRET). Treatment effects were determined by comparison of area under the curve values. Signalling inhibitors were dissolved in HBSS-HEPES. PS2 and PS2 inact were dissolved in HBSS-HEPES+1% DMSO. Cells were incubated with UBO-QIC (100 nM), AG1478 (1 μM), G66983 (1 μM), PS2 or PS2 inact (30 μM) or vehicle (30 min preincubation, inclusion throughout).

The target in another test is T1, human (h) PAR2 (Homo sapiens, UniProt P55085).
T1 construct: expressed in transfected cells; host or cells: KNRK cells (KNRK-hPAR2)
T1 sequence (P55085 26-397): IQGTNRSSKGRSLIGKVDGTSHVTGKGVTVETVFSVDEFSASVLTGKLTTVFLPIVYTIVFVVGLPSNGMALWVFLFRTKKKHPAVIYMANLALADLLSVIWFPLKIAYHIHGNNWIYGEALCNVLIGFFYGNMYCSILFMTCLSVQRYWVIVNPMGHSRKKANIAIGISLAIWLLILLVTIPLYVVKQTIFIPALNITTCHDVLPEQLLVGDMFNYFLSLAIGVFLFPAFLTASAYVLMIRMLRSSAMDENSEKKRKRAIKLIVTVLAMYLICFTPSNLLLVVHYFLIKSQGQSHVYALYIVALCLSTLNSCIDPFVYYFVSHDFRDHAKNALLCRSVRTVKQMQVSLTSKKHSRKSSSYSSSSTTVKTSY
The experiment in a line: IP1 accumulation assay in KNRK-hPAR2 cells. The note with it: 100 nM 2F; 30 μM of antagonist; read-out: KNRK-PAR2 100 nM 2F: ND (inhibition of 2F at 30 μM of antagonist). Here is the method:
(§1) KNRK-hPAR2, KNRK or HT-29 cells were seeded at a density of 50×10^3 cells/well in a clear poly-d-lysine coated 96 well tissue culture plate. Following 24 h incubation at 37° C. and 5% CO2, media was removed and replaced with 80 μl IP1 stimulation buffer (10 mM HEPES, 1 mM CaCl2, 0.5 mM MgCl2, 4.2 mM KCl, 146 mM NaCl, 5.5 mM glucose, 50 mM LiCl). Following stimulation buffer addition, the wells received 10 μl of 10× antagonists or DMSO vehicle. All plates were further incubated at 37° C., 5% CO2 for 30 min. 10 μl of 2F or ATP was added to the plates and further incubated for 40 min. Following incubation, stimulation buffer was quickly removed by aspiration and replaced with 25 μl lysis buffer (IP-One HTRF® assay kit, Cisbio). Following incubation of the lysates at 37° C., 5% CO2 for 10′, 10 μl lysate was transferred to a 384-well OptiPlate (PerkinElmer) and detected using the IP-One HTRF® assay kit (Cisbio).
(§2) Compounds of the invention (added at 10×concentrations in a 10 μL volume) were incubated for 30 min prior to the addition of 10 μM ATP or 100 nM or 300 nM PAR2 agonist (2F; EC80, added at 10×concentrations in a 10 μL volume) and then further incubated for 40 min. After lysis, the inositol phosphate 1 was quantified with IP-One HTRF® assay kit, Cisbio. The data was analysed with Prism, GraphPad to calculate the IC50 values, shown below in Table 1.
(§3) Inhibition of PAR2 signaling with known PAR2 inhibitor I-343 (FIG. 14A) was investigated in HT-29 cells and HEK293 cells, which express endogenous PAR2, and in KNRK cells expressing human (h) PAR2. Accumulation of inositol phosphate-1 (IP1) was measured in response to the PAR2-selective agonist 2-Furoyl-LIGRLO-NH2 (2F), an analogue of the trypsin-exposed tethered ligand, or trypsin.
(§4) KNRK-hPAR2, KNRK, HEK293, or HT-29 cells were seeded at a density of 50×10^3 cells/well onto clear 96-well plates (PerkinElmer). After 24 h of culture, medium was replaced with IP1 stimulation buffer (10 mM HEPES, 1 mM CaCl2, 0.5 mM MgCl2, 4.2 mM KCl, 146 mM NaCl, 5.5 mM glucose, 50 mM LiCl; 37° C., 5% CO2.). Cells were pre-incubated with the antagonist or vehicle for 30 min prior to the addition of agonist. Cells were then further incubated for 40 min. Stimulation buffer was […]

The next test deals with T2, PAR2 (Homo sapiens, UniProt P55085).
T2 construct: HT-29 cells and HEK293 cells, which express endogenous PAR2; endogenous in cells; host or cells: HT-29
T2 sequence (P55085 26-397): T1 sequence (P55085 26-397)
Kind of test: IP1 accumulation assay in HT-29 cells (endogenous PAR2). The note with it: 2F (300 nM)-induced IP1, HT-29 cells. Here is the method:
as §1, §2, §3, §4

The mark [2] stands for this setting: read-out: HT-29 300 nM 2F (IC50).

For `COc1cc2ncnc(Nc3cccc(Cl)c3)c2cc1OC` [AG1478], in test [1], the “trypsin-stimulated activation of cytosolic ERK” value was “suppressed”.
`CC(C)CCC[C@@H](C)[C@H]1CCC2C3CCC4C[C@@H](OC(=O)C[C@H](NC(=O)CCOCCOCCOCCOCCOCCOCCOCCOCCNC(=O)Cn5cc(C(=O)N6CCN(C(=O)c7cn8nc(-c9ccc(F)cc9)cc(C(C)(C)C)c8n7)C(C)(C)C6)nn5)C(N)=O)CC[C@]4(C)C3CC[C@@]21C` (stereo partly drawn) [Compound 12, (3S,10S,13R,17R)-10,13-dimethyl-17-((R)-6-methylheptan-2-yl)hexadecahydro-1H-cyclopenta[a]phenanthren-3-yl (32S)-1-(4-(4-(8-(tert-butyl)-6-(4-fluorophenyl)imidazo[1,2-b]pyridazine-2-carbonyl)-3,3-dimethylpiperazine-1-carbonyl)-1H-1,2,3-triazol-1-yl)-32-carbamoyl-2,30-dioxo-6,9,12,15,18,21,24,27-octaoxa-3,31-diazatetratriacontan-34-oate]: the inhibition (as a rule, the relative decrease from the control value, in per cent) at 30 µM on human (h) PAR2 was less than 50%. At PAR2 (setting [2]), the IC50 was 827 nM.
The like results for `CC(C)CCC[C@@H](C)[C@H]1CCC2C3CCC4C[C@@H](OC(=O)C[C@H](NC(=O)CCOCCOCCOCCOCCOCCOCCOCCOCCNC(=O)CCCNC(=O)Cn5cc(C(=O)N6CCN(C(=O)c7cn8nc(-c9ccc(F)cc9)cc(C(C)(C)C)c8n7)C(C)(C)C6)nn5)C(N)=O)CC[C@]4(C)C3CC[C@@]21C` (stereo partly drawn) [Compound 13, (3S,10S,13R,17R)-10,13-dimethyl-17-((R)-6-methylheptan-2-yl)hexadecahydro-1H-cyclopenta[a]phenanthren-3-yl (37S)-1-(4-(4-(8-(tert-butyl)-6-(4-fluorophenyl)imidazo[1,2-b]pyridazine-2-carbonyl)-3,3-dimethylpiperazine-1-carbonyl)-1H-1,2,3-triazol-1-yl)-37-carbamoyl-2,7,35-trioxo-11,14,17,20,23,26,29,32-octaoxa-3,8,36-triazanonatriacontan-39-oate] were, in that order, less than 50% and 736 nM.
For `CC(C)CCC[C@@H](C)[C@H]1CC[C@H]2[C@@H]3CCC4CC(OC(=O)C[C@H](NC(=O)CCOCCOCCOCCOCCOCCOCCNC(=O)[C@H](CCCNC(=N)N)NC(=O)CCOCCOCCOCCOCCOCCOCCNC(=O)Cn5cc(C(=O)N6CCN(C(=O)c7cn8nc(-c9ccc(F)cc9)cc(C(C)(C)C)c8n7)C(C)(C)C6)nn5)C(N)=O)CC[C@]4(C)[C@H]3CC[C@]12C` (stereo partly shown) [Compound 14] the same measures were less than 50% and 1550 nM.
On to `CCCCCCCCCCCCCCCCNC(=O)C[C@H](NC(=O)CCOCCOCCOCCOCCOCCOCCOCCOCCOCCOCCOCCOCCNC(=O)Cn1cc(C(=O)N2CCN(C(=O)c3cn4nc(-c5ccc(F)cc5)cc(C(C)(C)C)c4n3)C(C)(C)C2)nn1)C(N)=O` [Compound 15, (S)-3-(1-(4-(4-(8-(tert-butyl)-6-(4-fluorophenyl)imidazo[1,2-b]pyridazine-2-carbonyl)-3,3-dimethylpiperazine-1-carbonyl)-1H-1,2,3-triazol-1-yl)-2-oxo-6,9,12,15,18,21,24,27,30,33,36,39-dodecaoxa-3-azadotetracontan-42-amido)-N1-hexadecylsuccinamide], for which, at human (h) PAR2, the inhibition at 30 µM is less than 50%. The IC50 on PAR2 (read-out: HT-29 300 nM 2F pIC50 ± SEM (converted)) is 47.2 nM.
For the compound `CC(C)CCC[C@@H](C)[C@H]1CC[C@H]2[C@@H]3CC[C@@H]4C[C@@H](OC(=O)C[C@H](NC(=O)CCOCCOCCOCCOCCOCCOCCNC(=O)[C@@H](O)[C@H](O)[C@H](O)[C@@H](O)C(=O)NC5CCC(C(=O)N6CCN(C(=O)c7cn8nc(-c9ccc(F)cc9)cc(C(C)(C)C)c8n7)C(C)(C)C6)CC5)C(N)=O)CC[C@]4(C)[C@H]3CC[C@]12C` (stereo partly drawn) [Compound 16, (3S,5R,8R,9S,10S,13R,14S,17R)-10,13-dimethyl-17-((R)-6-methylheptan-2-yl)hexadecahydro-1H-cyclopenta[a]phenanthren-3-yl (3S,28S,29R,30S,31R)-32-((4-(4-(8-(tert-butyl)-6-(4-fluorophenyl)imidazo[1,2-b]pyridazine-2-carbonyl)-3,3-dimethylpiperazine-1-carbonyl)cyclohexyl)amino)-3-carbamoyl-28,29,30,31-tetrahydroxy-5,27,32-trioxo-8,11,14,17,20,23-hexaoxa-4,26-diazadotriacontanoate], at human (h) PAR2, the inhibition at 30 µM is less than 50%. The IC50 on PAR2 (setting [2]) is 2070 nM.
For `CC(C)CCC[C@@H](C)[C@H]1CC[C@H]2[C@@H]3CC=C4C[C@@H](OC(=O)NCCCC[C@@H](NC(=O)CCOCCOCCOCCOCCOCCOCCOCCOCCOCCOCCOCCOCCNC(=O)Cn5cc(C(=O)N6CCN(C(=O)c7cn8nc(-c9ccc(F)cc9)cc(C(C)(C)C)c8n7)C(C)(C)C6)nn5)C(=O)NN)CC[C@]4(C)[C@H]3CC[C@]12C` [Compound 17], at human (h) PAR2, the inhibition at 30 µM is less than 50%. In addition, the IC50 at PAR2 (setting [2]) was found to be 5630 nM.
